According to patent US20190048052A1, “ANTI-MICROBIAL PEPTIDES AND COATINGS” (Board of Regents of the University of Nebraska, priority 2016, published 2019):
In brackets after ≈: the same amount, converted by molar mass. Like-named read-outs stand apart in the source and are kept apart here. Non-standard residues stand in square brackets, D forms with d. Residues, ends and D or L forms follow the SMILES beside them.

Legend:
[1] = tested on: E. cloacae B2366-12; type: cell-based, Enterobacter cloacae; settings: B2366-12
Method: (§1) Bacterial strains used in this study included Enterococcus faecium ATCC51559, Staphylococcus aureus USA300 LAC, Klebsiella pneumoniae ATCC 13883, Acinetobacter baumannii B2367-12, Pseudomonas aeruginosa PAO1, Enterobacter cloacae B2366-12 and Escherichia coli ATCC 25922, wherein the first six constituting the ESKAPE pathogens. Tryptic soy broth (TSB) for bacterial growth was obtained from BD Bioscience (Sparks, Md.).
(§2) The antibacterial activity of peptides was evaluated using a standard broth microdilution protocol as described (Wang et al. (2012) Antimicrob. Agents Chemother., 56:845-856). In brief, 5 μl of each bacterium (stored at −80° C.) were inoculated into TSB medium (2 ml) and grown overnight. A second inoculation was made in the morning by delivering 10 μl of the overnight culture to a fresh TSB medium. After 2-3 hours growth at 37° C., 225 rpm, logarithmic phase bacterial cultures (OD600≈0.5) were diluted and partitioned into a 96-well polystyrene microplate with ˜10^5 colony forming units (CFU) per well (90 μl aliquots). After treatment with 10 μl of peptide solutions at various concentrations, microplates were incubated at 37° C. overnight and read on a ChroMate® 4300 Microplate Reader at 630 nm (GMI, Ramsey, Minn.). The medium was used as a blank where no bacteria should grow.

[2] = tested on: A. baumannii B2367-12; type: cell-based, Acinetobacter baumannii; settings: B2367-12
Method: as §1, §2

[3] = tested on: S. aureus USA300 LAC; type: cell-based, Staphylococcus aureus; settings: USA300
Method: as §1, §2

[4] = tested on: ESKAPE pathogens; type: cell-based
Method: as §1, §2

[5] = tested on: E. coli ATCC 25922; type: cell-based, Escherichia coli; settings: ATCC 25922
Method: as §1, §2

[6] = tested on: P. aeruginosa PAO1; type: cell-based, Pseudomonas aeruginosa
Method: as §1, §2

[7] = tested on: E. faecium ATCC51559; type: cell-based, Enterococcus faecium; settings: ATCC51559
Method: as §1, §2

[8] = tested on: C. tropicalis ATCC 13803; type: cell-based, Candida tropicalis; settings: ATCC 13803, 48 h
Method: (§3) Fungal strains used in this study include Candida albicans ATCC 10231, C. glabrata ATCC 2001 and C. tropicalis ATCC 13803. The fungi were grown in Remel Dex broth (Thermo Fisher Scientific, KS). Antifungal assays were conducted essentially as described for antibacterial assays above, except for a higher starting density at an OD600 0.02 and a longer incubation time of ˜48 hours prior to microplate reading (Mishra et al. (2015) RSC Advances 5:59758-59769).

[9] = tested on: Candida albicans ATCC 10231; type: cell-based; settings: ATCC 10231, 48 h
Method: as §3

[10] = tested on: C. glabrata ATCC 2001; type: cell-based, Candida glabrata; settings: ATCC 2001, 48 h
Method: as §3

[11] = tested on: S. aureus USA300; experiment: Propidium iodide membrane permeation; type: cell-based, Staphylococcus aureus
Method: Fluorescence spectroscopy was also used to follow bacterial killing. In brief, a serially diluted 10× peptide (10 μL) was made in 96-well coming COSTAR microtiter plates. Propidium iodide (2 μL) was added at 50 μM to each well which was finally incubated with S. aureus USA300 bacteria (88 μL at a final OD600 ˜0.1) with continuous shaking at 100 rpm, 37° C. in a FLUOstar® Omega (BMG LABTECH Inc, NC) microplate reader. The plates were read every 5 minutes for a total duration of 2 hours with excitation and emission wavelengths at 584 nm and 620 nm respectively. Plots were made using averaged readings from duplicated experiments after subtraction of the media control.

[12] = Hemolytic assay; type: cell-based; settings: red blood cells, hemolysis
Method: Hemolytic analysis of selected peptides was performed using an established protocol (Mishra et al. (2015) RSC Advances 5:59758-59769). Briefly, human blood cells (UNMC Blood Bank) were washed three times with phosphate buffer saline (PBS) and diluted to a 2% solution. After peptide treatment, incubation at 37° C. for one hour, and centrifugation at 13,000 rpm, aliquots of the supernatant were transferred to a fresh 96-well microplate. To assess peptide cytotoxicity, the amount of hemoglobin released was measured at 545 nm. The percent lysis was calculated by assuming 100% release when human blood cells were treated with 1% TRITON™ X-100, and 0% release when incubated with PBS buffer. The hemolytic assays using chicken, bovine, and porcine blood cells (Lampire Biological Laboratories, Inc.) were performed in the same manner.

[13] = tested on: S. epidermidis 1457; type: cell-based, Staphylococcus epidermidis
Method: (§4) The bacterial strains used here included Gram-positive bacteria Staphylococcus aureus USA300 LAC, Staphylococcus epidermidis 1457, Bacillus subtilis 168, and Gram-negative Escherichia coli K12. Clinical strains of S. aureus, including Mu50, UAMS-1 and Newman, were also evaluated.
(§5) The antimicrobial activity of peptides was evaluated using a standard broth microdilution protocol (Wang, G. (2008) J. Biol. Chem., 283:32637-32643). In brief, exponential phase bacteria at 10^6 CFU were incubated with serially diluted peptides overnight for ˜20 hours at 37° C. The plates were read on a ChroMate® 4300 Microplate Reader at 630 nm (GMI, Ramsey, Minn.). […] In addition, the effects of human serum (up to 10%), pH (6.8, 7.4 and 8.0) and 150 mM sodium chloride (NaCl) on MICs against S. aureus USA300 were also evaluated (Mishra et al. (2015) RSC Advances 5:59758-59769).

[14] = MTS cytotoxicity assay; type: cell-based; settings: human, HeLa CCL-2 cells
Method: (§6) HeLa CCL-2 epithelial adenocarcinoma cells from American Type Culture Collection (ATCC) were maintained in DMEM high glucose media with 4 mM L-glutamine (NyClone) and 100 U/mL penicillin, 100 μg/mL streptomycin (pen/strep) (Life Technologies), and 10% (v/v) inactivated fetal bovine serum (FBS) (NyClone). Cells were grown in 5% CO2 at 37° C. and were detached from the culturing dish at 80% confluency using 0.025% trypsin-EDTA (NyClone) treatment. Peptide influence on the cell viability was estimated by using the MTS assay according to the manufacturer's protocol (MTS, CellTiter96® AQ One Solution Cell Proliferation Assay, Promega) with minor modifications and as described elsewhere (Mishra et al. (2015) RSC Advances 5:59758-59769). In short, cells were cultured in flat bottomed 96 well microtiter plates (Corning Life Science) at a seeding density of 20,000 cells/well. At confluence ˜100% achieved after 20-24 hours of cultivation, the cells were washed twice with 100 μL Dulbecco's Phosphate Buffered Saline (Life Technologies). Further, 90 μL of DMEM media with 10% FBS, pen/step was added before exposure to 10 μL of the peptide solution in the concentration range 12.5-100 μM. Plates were incubated at 37° C. After 1 hour, 10 μL MTS, CellTiter96® was added. Plates were further incubated for another 2 hours at 37° C. and finally, the absorbance was measured on ChroMate® reader (Awareness Technology) at 492 nm. Culture medium and 0.2% SDS were used as negative and positive controls, respectively.

[15] = tested on: S. aureus Newman; type: cell-based, Staphylococcus aureus
Method: as §4, §5

[16] = tested on: S. aureus Mu50; type: cell-based, Staphylococcus aureus
Method: as §4, §5

[17] = tested on: S. aureus USA300; type: cell-based, Staphylococcus aureus
Method: as §4, §5

[18] = tested on: S. aureus UAMS-1; type: cell-based, Staphylococcus aureus
Method: as §4, §5

[19] = tested on: E. coli K12; type: cell-based, Escherichia coli
Method: as §4, §5

[20] = tested on: S. aureus USA300; type: cell-based, Staphylococcus aureus; remark: listed apart in the source
Method: The minimal bactericidal concentration (MBC) was determined by plating 50 μl of the content in the clear wells of the above MIC assays. MBC was determined on the petri dishes without bacterial colony formation after overnight growth (Wang et al. (2012) Biochemistry 51:653-664).

[21] = MTS cytotoxicity assay; type: cell-based; settings: human
Method: as §6
Human skin HaCaT (immortalized keratinocyte from AddexBio, T0020001) and kidney HEK293 cells were also cultivated for cytotoxicity evaluation of the peptides in a similar manner.

[22] = tested on: B. subtilis 168; type: cell-based, Bacillus subtilis
Method: as §4, §5

[23] = target: T1, proteinase K (Parengyodontium album, UniProt P06873); experiment: Peptide stability to proteases (SDS-PAGE); type: in vitro ADME, fungal; settings: peptide:protease 40:1, 24 hours, 37° C.
T1 construct: purchased Sigma or Fisher
Method: (§7) When degraded, no peptide band could be detected on a 5% stacking/18% resolving tricine gel after 2-4 hours incubation at 37° C. Briefly, a solution (100 μL) containing 250 μM peptide and 6.25 μM protease (Sigma or Fisher) in 10 mM PBS buffer (pH 8) was incubated at 37° C. (peptide/protease molar ratio, 40:1). Aliquots (10 μL) of the reaction solutions were taken at 0, 6, and 24 hours and immediately mixed with 10 μL of 2× SDS loading buffer followed by boiling for 5 minutes to stop the reaction. […] After electrophoresis, the gel was stained by Brilliant Blue R-250 (Fisher) and destained to view the peptide bands.

[24] = target: T2, S. aureus V8 protease (Staphylococcus aureus, UniProt P0C1U8); type: in vitro ADME; settings: peptide:protease 40:1, 24 hours, 37° C.
T2 construct: purchased Sigma or Fisher
Method: as §7

T1 sequence (P06873 106-384): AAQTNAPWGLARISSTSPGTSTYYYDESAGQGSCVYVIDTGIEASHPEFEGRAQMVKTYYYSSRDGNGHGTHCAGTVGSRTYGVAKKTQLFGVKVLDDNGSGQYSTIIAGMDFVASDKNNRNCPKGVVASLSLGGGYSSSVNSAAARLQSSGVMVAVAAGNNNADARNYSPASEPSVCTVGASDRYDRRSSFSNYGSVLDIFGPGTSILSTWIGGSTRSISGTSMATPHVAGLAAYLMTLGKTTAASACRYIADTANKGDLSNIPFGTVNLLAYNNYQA
T2 sequence (P0C1U8 69-336): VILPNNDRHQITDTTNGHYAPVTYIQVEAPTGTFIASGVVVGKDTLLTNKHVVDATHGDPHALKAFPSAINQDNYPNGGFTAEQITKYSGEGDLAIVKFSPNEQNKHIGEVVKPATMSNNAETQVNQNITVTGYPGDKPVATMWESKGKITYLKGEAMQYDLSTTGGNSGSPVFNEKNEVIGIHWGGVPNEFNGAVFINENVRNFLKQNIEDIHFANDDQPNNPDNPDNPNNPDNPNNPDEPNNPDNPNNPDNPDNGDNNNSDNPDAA

CC[C@H](C)[C@H](NC(=O)[C@H](CCCNC(=N)N)NC(=O)[C@H](CCC(N)=O)NC(=O)[C@@H](NC(=O)[C@@H](NC(=O)[C@H](CCCNC(=N)N)NC(=O)[C@H](CCCCN)NC(=O)[C@@H](N)Cc1ccccc1)[C@@H](C)CC)C(C)C)C(=O)N[C@@H](CCCCN)C(=O)N[C@@H](CC(=O)O)C(=O)N[C@@H](Cc1ccccc1)C(=O)N[C@@H](CC(C)C)C(=O)N[C@@H](CCCNC(=N)N)C(=O)N[C@@H](CC(N)=O)C(=O)N[C@@H](CC(C)C)C(=O)N[C@H](C(N)=O)C(C)C [FK-16, FKRIVQRIKDFLRNLV, reference compound] (H-FKRIVQRIKDFLRNLV-NH2; N-terminus and C-terminus assumed)
MIC ECl [1]: 12.5 ± 0 µM (≈ 25.6 µg/mL)
MIC AB [2]: 4.67 ± 2.2 µM (≈ 9.55 µg/mL)
MIC SA [3]: 4.67 ± 1.8 µM (≈ 9.55 µg/mL)
MIC range against almost all / most of the tested strains [4]: 3.1 to 12.5 µM
MIC EC [5]: 4.67 ± 2.2 µM (≈ 9.55 µg/mL)
MIC PA [6]: 50 µM (≈ 102 µg/mL)
MIC EF [7]: 3.1 ± 0 µM (≈ 6.34 µg/mL)

CC[C@H](C)[C@H](NC(=O)[C@H](CCCCN)NC(=O)[C@H](CCCCN)NC(=O)[C@H](CC(C)C)NC(=O)[C@H](Cc1c[nH]c2ccccc12)NC(=O)[C@H](Cc1c[nH]c2ccccc12)NC(=O)[C@@H](N)Cc1c[nH]c2ccccc12)C(=O)N[C@@H](Cc1c[nH]c2ccccc12)C(N)=O [TetraF2W-KK, WWWLKKIW] (H-WWWLKKIW-NH2; N-terminus and C-terminus assumed)
MIC Candida tropicalis [8]: 1.6 µM (≈ 1.99 µg/mL)
MIC Candida albicans [9]: 6.2 µM (≈ 7.72 µg/mL)
MIC Candida glabrata [10]: 6.2 to 12.5 µM
propidium iodide fluorescence change after treatment [11]: least potent
CC50 at 1 hour ([12]; chicken, read-out: LC50 Chicken RBCs): 50 µM
CC50 at 1 hour ([12]; human, read-out: LC50 Human RBCs): 40 µM
CC50 at 1 hour ([12]; pig, read-out: LC50 Porcine RBCs): 55 µM
MIC S. epidermidis 1457 [13]: 6.2 µM (≈ 7.72 µg/mL)
CC50 at 1 hour [14]: 70 µM
Antimicrobial activity (MIC) Newman [15]: 6.2 µM
Antimicrobial activity (MIC) Mu50 [16]: 6.2 µM
Antimicrobial activity (MIC) 150 mM NaCl ([17]; USA300): 3.1 to 6.2 µM
Antimicrobial activity (MIC) USA300 ([17]; USA300): 3.1 to 6.2 µM
MIC S. aureus USA300 ([17]; USA300): 3.1 to 6.2 µM
Antimicrobial activity (MIC) pH 6.8 ([17]; USA300, pH 6.8): 12.5 μM
Antimicrobial activity (MIC) Normal medium (pH 7.4) ([17]; USA300, pH 7.4): 3.1-6.2 μM
Antimicrobial activity (MIC) pH 8 ([17]; USA300, pH 8): 3.1 μM
Antimicrobial activity (MIC) UAMS-1 [18]: 6.2 µM
MIC E. coli K12 ([19]; K12): 12.5 to 25 µM
MBC S. aureus USA300 [20]: > 25 µM
MBC S. aureus USA300 ([20]; USA300): >25 µM
CC50 at 1 hour ([21]; HEK293 cells): 50 µM
CC50 at 1 hour ([21]; HaCaT cells): 50 µM
MIC B. subtilis 168 [22]: 6.2 µM (≈ 7.72 µg/mL)

CC[C@@H](C)[C@@H](NC(=O)[C@@H](CCCCN)NC(=O)[C@@H](CCCNC(=N)N)NC(=O)[C@@H](CC(C)C)NC(=O)[C@@H](Cc1c[nH]c2ccccc12)NC(=O)[C@@H](Cc1c[nH]c2ccccc12)NC(=O)[C@H](N)Cc1c[nH]c2ccccc12)C(=O)N[C@H](Cc1c[nH]c2ccccc12)C(N)=O [TetraF2W-RK-d, wwwlrkiw] (H-[dW][dW][dW][dL][dR][dK][dI][dW]-NH2; N-terminus and C-terminus assumed)
MIC S. epidermidis 1457 [13]: 6.2 µM (≈ 7.89 µg/mL)
MIC S. aureus USA300 ([17]; USA300): 3.1 µM (≈ 3.94 µg/mL)
MIC E. coli K12 [19]: 6.2 µM (≈ 7.89 µg/mL)
MIC E. coli K12 ([19]; K12): 6.2 µM (≈ 7.89 µg/mL)
stability to fungal proteinase K [23]: remained stable
MBC S. aureus USA300 ([20]; USA300): 12.5 µM (≈ 15.9 µg/mL)
stability to S. aureus V8 protease [24]: remained stable
MIC B. subtilis 168 [22]: 3.1 µM (≈ 3.94 µg/mL)
